# Results taken from US9914730B2, “Azaquinazoline inhibitors of Atypical protein Kinase C” (Ignyta, Inc., priority 2012, dated 2018).
# Biological target: T1, full-length human PKCι (Homo sapiens, UniProt P41743)
# T1 construct: Recombinant, full-length human PKCι expressed in Sf21 insect cells is also commercially available; purchased; host or cells: Sf21 insect cells
# T1 sequence (P41743 1-596): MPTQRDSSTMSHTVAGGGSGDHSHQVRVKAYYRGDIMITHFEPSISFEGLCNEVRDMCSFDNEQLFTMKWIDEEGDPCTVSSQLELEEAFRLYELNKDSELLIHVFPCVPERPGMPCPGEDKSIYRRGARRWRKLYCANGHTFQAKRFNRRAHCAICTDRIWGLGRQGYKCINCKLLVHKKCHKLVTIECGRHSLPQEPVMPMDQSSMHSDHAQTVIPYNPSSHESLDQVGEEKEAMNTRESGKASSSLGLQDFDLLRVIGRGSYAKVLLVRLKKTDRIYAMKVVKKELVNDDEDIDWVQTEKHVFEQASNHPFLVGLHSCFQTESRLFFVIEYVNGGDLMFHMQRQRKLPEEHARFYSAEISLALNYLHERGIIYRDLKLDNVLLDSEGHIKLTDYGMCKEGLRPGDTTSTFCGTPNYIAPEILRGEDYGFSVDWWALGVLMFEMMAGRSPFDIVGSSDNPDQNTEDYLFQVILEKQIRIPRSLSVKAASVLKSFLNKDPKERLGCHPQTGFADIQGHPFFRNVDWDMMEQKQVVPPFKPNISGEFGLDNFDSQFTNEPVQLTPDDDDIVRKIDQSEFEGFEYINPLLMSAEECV
# Experiment: PKCι IC50 IMAP assay, full-length PKCι at 150 μM ATP
# Type: biochemical
# Settings: read-out: IC50 in IMAP assay against full length PKCi at 150 μM ATP
# Method in brief: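 Recombinant full-length human PKCι (Sf21-expressed, typically 15 pM) phosphorylated 100 nM 5FAM-labelled PKCε pseudosubstrate-derived peptide with 150 μM ATP (5× KM^APP) in 18 mM tris-HCl pH7.5, 9 mM MgCl2, EGTA, DTT, 4% DMSO. After 60 min at room temperature, IMAP binding reagent was added for 2 h and fluorescence polarisation read.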
row,Compound,IC50 [nM]
1,"Fc1cnc(Nc2cc(-c3nc(NC4CCOCC4)c4c(C5CC5)cncc4n3)ccn2)c(F)c1 [Example 2168, {5-Cyclopropyl-2-[2-(3,5-difluoro-pyridin-2-ylamino)-pyridin-4-yl]-pyrido[3,4-d]pyrimidin-4-yl}-(tetrahydro-pyran-4-yl)-amine]",10000 to 40000
2,"COc1cc(N2CCOCC2)ccc1Nc1cc(-c2nc(N[C@@H]3CCNC3)c3ccncc3n2)ccn1 [Example 358, {2-[2-(2-Methoxy-4-morpholin-4-yl-phenylamino)-pyridin-4-yl]-pyrido[3,4-d]pyrimidin-4-yl}-(R)-pyrrolidin-3-yl-amine]",100 to 1000
3,"OC[C@@H](O)CN1CCN(c2nc(-c3ccnc(Nc4ccccc4)c3)nc3cncc(C4CC4)c23)CC1 [Example 607, (S)-3-{4-[5-Cyclopropyl-2-(2-phenylamino-pyridin-4-yl)-pyrido[3,4-d]pyrimidin-4-yl]-piperazin-1-yl}-propane-1,2-diol]",100 to 1000
4,"Fc1cnc(Nc2cc(-c3nc(NC4CCNCC4(F)F)c4c(C5CC5)cncc4n3)ccn2)c(F)c1 (stereo not drawn) [Example 2156, {5-Cyclopropyl-2-[2-(3,5-difluoro-pyridin-2-ylamino)-pyridin-4-yl]-pyrido[3,4-d]pyrimidin-4-yl}-(3,3-difluoro-piperidin-4-yl)-amine]",100 to 1000
5,"c1ccc(C[C@@H]2CN(c3nc(-c4ccncc4)nc4cnccc34)CCN2)cc1 [Example 17, (3R)-3-benzyl-1-[2-(pyridin-4-yl)-pyrido[3,4-d]-pyrimidin-4-yl]-piperazine]",1000 to 10000
6,"Oc1nc(-c2ccnc(Nc3cnn(CC4CCNCC4)c3)c2)nc2cnccc12 [Example 499, 2-[2-(1-Piperidin-4-ylmethyl-1H-pyrazol-4-ylamino)-pyridin-4-yl]-pyrido[3,4-d]pyrimidin-4-ol]",10000 to 40000
7,"N[C@H](CNc1nc(-c2ccncc2)nc2c(Nc3ncccn3)nccc12)Cc1ccccc1 [Example 124, 4-N-[(2S)-2-amino-3-phenylpropyl]-2-(pyridin-4-yl)-8-N-(pyrimidin-2-yl)pyrido[3,4-d]pyrimidine-4,8-diamine]",1000 to 10000
8,"CN(c1nc(-c2ccnc(Nc3nc(F)c(F)cc3F)c2)nc2c(Cl)ncc(C3CC3)c12)C1CCNCC1 [Example 2169, {8-Chloro-5-cyclopropyl-2-[2-(3,5,6-trifluoro-pyridin-2-ylamino)-pyridin-4-yl]-pyrido[3,4-d]pyrimidin-4-yl}-methyl-piperidin-4-yl-amine]",< 100
9,"Fc1cnc(Nc2cc(-c3nc(N4CCNCC4)c4c(C5CC5)cnc(C5CC5)c4n3)ccn2)c(F)c1 [Example 2188, [4-(5,8-Dicyclopropyl-4-piperazin-1-yl-pyrido[3,4-d]pyrimidin-2-yl)-pyridin-2-yl]-(3,5-difluoro-pyridin-2-yl)-amine]",100 to 1000
10,"COc1cncc2nc(-c3ccncc3)nc(N3CCN(CC(N)=O)[C@@H](Cc4ccccc4)C3)c12 [Example 48, 2-[(2S)-2-benzyl-4-[5-methoxy-2-(pyridin-4-yl)-pyrido[3,4-d]-pyrimidin-4-yl]-piperazin-1-yl]acetamide]",1000 to 10000
11,"COc1cncc2nc(-c3ccnc(Nc4cncnc4)c3)nc(N[C@@H]3CCNC3)c12 [Example 385, {5-Methoxy-2-[2-(pyrimidin-5-ylamino)-pyridin-4-yl]-pyrido[3,4-d]pyrimidin-4-yl}-(R)-pyrrolidin-3-yl-amine]",100 to 1000
12,"c1cncc(Nc2cc(-c3nc(N[C@@H]4CCNC4)c4ccncc4n3)ccn2)c1 [Example 376, {2-[2-(Pyridin-3-ylamino)-pyridin-4-yl]-pyrido[3,4-d]pyrimidin-4-yl}-(R)-pyrrolidin-3-yl-amine]",100 to 1000
13,"N[C@H](CNc1nc(-c2ccncc2)nc2c(-c3ccc4occc4c3)nccc12)Cc1ccccc1 [Example 97, N-[(2S)-2-amino-3-phenylpropyl]-8-(1-benzofuran-5-yl)-2-(pyridin-4-yl)-pyrido[3,4-d]-pyrimidin-4-amine]",100 to 1000
14,"c1cc2c(N[C@@H]3CCNC3)nc(-c3ccnc(Nc4ccc(Cn5ccnc5)cc4)c3)nc2cn1 [Example 322, {2-[2-(4-Imidazol-1-ylmethyl-phenylamino)-pyridin-4-yl]-pyrido[3,4-d]pyrimidin-4-yl}-(R)-pyrrolidin-3-yl-amine]",100 to 1000

# Now from value to molecule:
row,IC50 [nM],Compound
1,100 to 1000,"COc1cncc2nc(-c3ccnc(Nc4cc(C#N)ccc4F)c3)nc(N3CCNCC3)c12 [Example 420, 4-Fluoro-3-[4-(5-methoxy-4-piperazin-1-yl-pyrido[3,4-d]pyrimidin-2-yl)-pyridin-2-ylamino]-benzonitrile]"
2,100 to 1000,"COc1cncc2nc(-c3ccnc(Nc4ccccc4)c3)nc(N3CCN[C@H](CF)C3)c12 [Example 235, {4-[4-((S)-3-Fluoro-methyl-piperazin-1-yl)-5-methoxy-pyrido[3,4-d]pyrimidin-2-yl]-pyridin-2-yl}-phenyl-amine]"
3,< 100,"CC(=O)Nc1cc(-c2nc(N3CCNCC3)c3c(C4CC4)cncc3n2)ccn1 [Example 581, N-[4-(5-Cyclopropyl-4-piperazin-1-yl-pyrido[3,4-d]pyrimidin-2-yl)-pyridin-2-yl]-acetamide]"
4,< 100,"c1ccn2nc(Nc3cc(-c4nc(N5CCNCC5)c5c(C6CC6)cncc5n4)ccn3)nc2c1 [Example 743, [4-(5-Cyclopropyl-4-piperazin-1-yl-pyrido[3,4-d]pyrimidin-2-yl)-pyridin-2-yl]-[1,2,4]triazolo[1,5-a]pyridin-2-yl-amine]"
5,< 100,"c1ccc(Nc2cc(-c3nc(N4CCN[C@@H](C5CC5)C4)c4c(C5CC5)cncc4n3)ccn2)cc1 [Example 273, {4-[5-Cyclopropyl-4-((S)-3-cyclopropyl-piperazin-1-yl)-pyrido[3,4-d]pyrimidin-2-yl]-pyridin-2-yl}-phenyl-amine]"
6,100 to 1000,"N#Cc1cc(F)c(Nc2cc(-c3nc(N4CCNCC4)c4c(C5CC5)cncc4n3)ccn2)c(F)c1 [Example 740, 4-[4-(5-Cyclopropyl-4-piperazin-1-yl-pyrido[3,4-d]pyrimidin-2-yl)-pyridin-2-ylamino]-3,5-difluoro-benzonitrile]"
7,< 100,"COc1cncc2nc(-c3ccnc(Nc4cccnc4F)c3)nc(N3CCNCC3)c12 [Example 450, (2-Fluoro-pyridin-3-yl)-[4-(5-methoxy-4-piperazin-1-yl-pyrido[3,4-d]pyrimidin-2-yl)-pyridin-2-yl]-amine]"
8,< 100,"COc1ccccc1Nc1cc(-c2nc(N3CCNCC3)c3c(C4CC4)cncc3n2)ccn1 [Example 515, [4-(5-Cyclopropyl-4-piperazin-1-yl-pyrido[3,4-d]pyrimidin-2-yl)-pyridin-2-yl]-(2-methoxy-phenyl)-amine]"
9,< 100,"N#CC[C@H]1CN(c2nc(-c3ccnc(Nc4ccccc4)c3)nc3cncc(C4CC4)c23)CCN1 [Example 280, {(S)-4-[5-Cyclopropyl-2-(2-phenylamino-pyridin-4-yl)-pyrido[3,4-d]pyrimidin-4-yl]-piperazin-2-yl}-acetonitrile]"
10,< 100,"COc1ccc(F)c(Nc2cc(-c3nc(N4CCNCC4)c4c(C5CC5)cncc4n3)ccn2)c1 [Example 580, [4-(5-Cyclopropyl-4-piperazin-1-yl-pyrido[3,4-d]pyrimidin-2-yl)-pyridin-2-yl]-(2-fluoro-5-methoxy-phenyl)-amine]"
11,< 100,"Fc1cccc(F)c1-n1cc(Nc2cc(-c3nc(N4CCNCC4)c4c(C5CC5)cncc4n3)ccn2)cn1 [Example 818, [4-(5-Cyclopropyl-4-piperazin-1-yl-pyrido[3,4-d]pyrimidin-2-yl)-pyridin-2-yl]-[1-(2,6-difluoro-phenyl)-1H-pyrazol-4-yl]-amine]"
12,< 100,"Cc1cccc(Cl)c1Nc1cc(-c2nc(N3CCNCC3)c3c(C4CC4)cncc3n2)ccn1 [Example 527, (2-Chloro-6-methyl-phenyl)-[4-(5-cyclopropyl-4-piperazin-1-yl-pyrido[3,4-d]pyrimidin-2-yl)-pyridin-2-yl]-amine]"
13,< 100,"c1cc(-c2nc(N3CCNCC3)c3c(C4CC4)cncc3n2)cc(N[C@H]2C[C@@H]3CC[C@H]2C3)n1 [Example 823, (1S,2S,4R)-Bicyclo[2.2.1]hept-2-yl-[4-(5-cyclopropyl-4-piperazin-1-yl-pyrido[3,4-d]pyrimidin-2-yl)-pyridin-2-yl]-amine]"
14,< 100,"COc1cc(Nc2cc(-c3nc(N4CCNCC4)c4c(C5CC5)cncc4n3)ccn2)ccc1C [Example 609, [4-(5-Cyclopropyl-4-piperazin-1-yl-pyrido[3,4-d]pyrimidin-2-yl)-pyridin-2-yl]-(3-methoxy-4-methyl-phenyl)-amine]"
15,< 100,"Cn1c(Nc2cc(-c3nc(N4CCNCC4)c4c(C5CC5)cncc4n3)ccn2)nc2ccccc21 [Example 2046, [4-(5-Cyclopropyl-4-piperazin-1-yl-pyrido[3,4-d]pyrimidin-2-yl)-pyridin-2-yl]-(1-methyl-1H-benzoimidazol-2-yl)-amine]"
16,< 100,"Fc1cccc(F)c1Nc1cc(-c2nc(NC3CCNCC3)c3c(C4CC4)cncc3n2)ccn1 [Example 790, {5-Cyclopropyl-2-[2-(2,6-difluoro-phenylamino)-pyridin-4-yl]-pyrido[3,4-d]pyrimidin-4-yl}-piperidin-4-yl-amine]"
